Patent US6433174B1, “Process for producing novel naphthyridine derivatives” (Nippon Kayaku Kabushiki Kaisha, priority 1998, dated 2002)

What was measured:
NK-2 receptor [1] = target: T1, NK-2 receptor (Rattus norvegicus, UniProt P16610); assay: NK-2 receptor binding test (125I-neurokinin A, rat duodenum membrane preparation); conditions: rat duodenum membranes, 125I-neurokinin A 1×10^−9 M, room temperature, 90 minutes; read-out: IC50 of the drug against radioactive neurokinin A binding
T1 construct: from tissue; host or cells: rat duodenum membrane preparation
T1 sequence (P16610 1-390): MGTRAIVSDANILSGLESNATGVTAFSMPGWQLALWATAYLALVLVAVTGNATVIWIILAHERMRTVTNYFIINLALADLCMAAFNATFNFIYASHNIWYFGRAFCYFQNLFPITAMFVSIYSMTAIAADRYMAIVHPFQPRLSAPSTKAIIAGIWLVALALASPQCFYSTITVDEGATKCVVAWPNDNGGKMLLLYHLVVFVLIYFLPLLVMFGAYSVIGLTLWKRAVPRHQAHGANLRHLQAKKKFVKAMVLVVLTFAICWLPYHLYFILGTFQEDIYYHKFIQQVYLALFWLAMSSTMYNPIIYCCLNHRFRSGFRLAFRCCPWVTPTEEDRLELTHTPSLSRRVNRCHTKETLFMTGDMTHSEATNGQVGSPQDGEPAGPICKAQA
Protocol: NK-2 Receptor Binding Test
The duodenum taken out from a Fischer-strain male rat was homogenized in a 50 mM tris-hydrochloride buffer solution containing ethylenediaminetetracetic acid (1 mM), and 48,000 g of the obtained homogenate was subjected to centrifugal sedimentation at 4° C. for 20 minutes. The produced pellets were washed thrice with 10 times as much volume of a 50 mM trishydrochloride butter solution containing KCl (300 mM) and ethylenediaminetetracetic acid (10 mM), and the obtained membrane preparation was suspended in 10 times as much volume of a 50 mM tris-hydrochloride buffer solution (pH 7.4) and kept at −80° C. till it was offered to use. The above membrane preparation (20 mg/ml) was incubated with a radioactive legand 125 I-neurokinin A (1×10^−9 M) in a 50 mM tris-hydrochloride buffer solution (pH 7.4) containing bovine serum albumin (10 mg/ml), bacitracin (40 μg/ml), leupepsin (4 μg/ml), chymostatin (50 μg/ml), antipain (1×10^−4 M) and MnCl2 (1 mM) in the presence of a drug or its solvent at room temperature for 90 minutes. The reaction solution was suction-filtered by a GE/B filter pretreated with polyethylene-imine (0.1%), and was washed with 3 ml of a 50 mM tris-hydrochloride buffer solution (pH 7.4) containing MnCl2 (1 mM), and the radioactivity in the filter was measured by a gamma counter. With the radioactivity in the presence of Nle10 eurokinin A (4-10) (3×10^−6 M) being taken as non-specific binding, the specific binding inhibition rate by the drug was given as control in the case of a solvent, and the 50% inhibition concentration (IC50) of the drug was determined from the linear regression.

NK-2 receptor [2] = target: T2, NK-2 receptor (Cavia porcellus, UniProt Q64077); assay: Inhibitory action against stricture of airway caused by NK-2 receptor stimulation and antigen inhalation; type: in vivo; conditions: guinea pig
T2 construct: Specimens were prepared by joining 5 slices from said trachea; from tissue; host or cells: isolated guinea pig trachea (A2); anesthetized guinea pig airway in vivo (A5)
T2 sequence (Q64077 1-402): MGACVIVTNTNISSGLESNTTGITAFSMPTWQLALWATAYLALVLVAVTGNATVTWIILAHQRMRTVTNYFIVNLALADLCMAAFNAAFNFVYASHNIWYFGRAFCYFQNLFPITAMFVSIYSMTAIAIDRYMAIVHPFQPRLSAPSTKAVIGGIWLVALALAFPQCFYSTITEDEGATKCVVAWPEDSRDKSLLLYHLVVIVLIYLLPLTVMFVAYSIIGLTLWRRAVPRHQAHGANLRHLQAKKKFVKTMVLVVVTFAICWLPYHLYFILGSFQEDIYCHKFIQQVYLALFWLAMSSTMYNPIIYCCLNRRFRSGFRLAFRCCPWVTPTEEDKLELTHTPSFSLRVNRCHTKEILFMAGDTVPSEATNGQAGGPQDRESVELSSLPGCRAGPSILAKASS
Protocol: Inhibitory Action Against Stricture of Airway
The non-treated Hartley strain male guinea pigs and the Hartley strain male guinea pigs which had been actively sensitized by subcutaneous administration of 300 mg/kg of ovalbumin 14 to 21 days ago were used. A tube was inserted into the trachea of each guinea pig anesthetized with pentobarbital, and positive pressure breathing was conducted at a rate of 60 times of breathing per minute (10 ml/kg) by an artificial breathing system. Lateral pressure of the tube in the trachea was measured as an index of stricture of airway. Spontaneous respiration was inhibited by the administration of succinylcholine. To the non-treated guinea pigs, 2 μmol of Nle10 neurokinin A (4-10)—a specific stimulant to NK-2 receptor—was intravenously injected repeatedly at intervals of 10 minutes. After the induced airway restriction reaction was stabilized, the drug was administered intravenously or perorally. 3 minutes after intravenous administration or 50 minutes after peroral or intraduodenal administration, Nle10 neurokinin A (4-10) was again intravenously injected. The inhibition rate by the drug was determined with the degree of airway restriction before drug administration as control.
15 minutes after intravenous administration of 4.6 μmol/kg of phosphoramidon to each actively sensitized guinea pig, it was forced to inhale, for 2 minutes, an aerosol of an antigen ovalbumin solution (2 mg/ml) generated by a supersonic nebulizer to induce stricture of the airway. The drug or its solvent was administered perorally 50 minutes before the antigen inhalation. 8 minutes after antigen inhalation of the solvent-administered group, the inhibition rate of the drug-administered group was determined with the degree of airway stricture of the solvent-administered group as control.

Mouse = assay: Toxic action in mouse, intravenous administration; type: in vivo
Text: Toxicity of the novel naphthyridine derivatives of the present invention was examined.

NK-2 receptor [3] = target: T2, NK-2 receptor; assay: Antagonistic action against NK-2 receptor: neurokinin A-induced contraction of isolated guinea pig trachea; type: cell-based; conditions: drug concentration 5 × 10^−9 M, neurokinin A 1×10^−9 M, 110-minute incubation, read-out: Inhibition rate of neurokinin A-induced contraction
Protocol: Antagonistic Action Against NK-2 Receptor
A Hartley-strain male guinea pig was caused to die by head contusion and blood depletion, and its trachea was extracted. Specimens were prepared by joining 5 slices from said trachea, and they were suspended with a tension of 0.5 gram-weight in a 15-ml Magunus tank containing a 37° C. Krebs-Henseleit liquid through which a mixed gas of 95% O2 and 5% CO2 had been passed. A Krebs-Henseleit liquid containing indomethacin (5×10^−6 M) was used to obviate the participation of endogenous prostaglandin. After confirming the maximum contraction of each specimen by methacholine, a drug or its solvent was added and, after 110-minute incubation, neurokinin A (1×10^−9 M) was acted thereto. Phosphoramidon (1×10^−5 M) was added for inhibiting decomposition of neurokinin A 30 minutes before the addition of neurokinin A and (±) CP-96345 (3×10^−7 M) was added for eliminating the participation of NK-1 receptor 20 minutes before the addition of neurokinin A. The contraction by neurokinin A was first determined as a ratio to the maximum contraction of each specimen, and then the inhibition rate by the drug was determined with the amount of contraction of the solvent-added specimen as control.

NK-1 receptor = target: T3, NK-1 receptor (Cavia porcellus, UniProt P30547); assay: Antagonistic action against NK-1 receptor: Methyl Substance P-induced contraction of isolated guinea pig ileum; type: cell-based; conditions: Methyl Substance P 1×10^−9 M, 35-minute incubation, read-out: IC50 of the drug against contraction by Methyl Substance P
T3 construct: its ileum was extracted; An approximately 3 cm long specimen was prepared therefrom; from tissue; host or cells: isolated guinea pig ileum
Protocol: Antagonistic Action Against NK-1 Receptor
A Hartley strain male guinea pig was caused to die by head contusion and blood depletion, and its ileum was extracted. An approximately 3 cm long specimen was prepared therefrom, and it was suspended with a tension of 0.5 gram-weight in a 15 ml Mogunus tank containing a 37° C. Krebs-Henseleit liquid through which a mixed gas of 95% O2 and 5% CO2 had been passed. A Krebs-Henseleit liquid containing atropin (1×10^−6 M) and indomethacin (5×10^−6 M) was used to get rid of the participation of endogenous acetylcholine and prostaglandin. Methyl Substance P (1×10^−9 M), which is a specific stimulant of NK-1 receptor, was acted repeatedly at intervals of 40 minutes. After contraction by Methyl Substance P was stabilized, the drug was added in various concentrations and, after 35-minute incubation, Methyl Substance P was again acted. The contraction inhibition rate by the drug was determined with the contraction just before the addition of the drug as control, and the 50% inhibition concentration (IC50) of the drug was calculated from the linear regression.

NK-3 receptor = target: T4, NK-3 receptor (Cavia porcellus, UniProt P30098); assay: Antagonistic action against NK-3 receptor: senktide-induced contraction of isolated guinea pig ileum; type: cell-based; conditions: senktide 1×10^−9 M, 35-minute incubation, read-out: IC50 of the drug against contraction by senktide
T4 construct: its ileum was extracted; An approximately 3 cm long specimen was prepared therefrom; from tissue; host or cells: isolated guinea pig ileum
T4 sequence (P30098 1-440): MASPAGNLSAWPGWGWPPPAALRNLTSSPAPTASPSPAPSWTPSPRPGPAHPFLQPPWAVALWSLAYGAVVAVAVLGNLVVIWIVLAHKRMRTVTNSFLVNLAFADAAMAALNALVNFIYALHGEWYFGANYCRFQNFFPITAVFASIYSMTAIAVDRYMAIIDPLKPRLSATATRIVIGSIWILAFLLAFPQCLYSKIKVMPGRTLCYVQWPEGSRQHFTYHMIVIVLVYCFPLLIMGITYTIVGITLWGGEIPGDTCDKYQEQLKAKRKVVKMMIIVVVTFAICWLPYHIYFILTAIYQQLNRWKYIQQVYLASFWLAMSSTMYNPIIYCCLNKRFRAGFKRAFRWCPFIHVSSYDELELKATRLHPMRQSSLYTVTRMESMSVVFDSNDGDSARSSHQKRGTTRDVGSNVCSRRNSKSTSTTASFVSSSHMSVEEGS
Protocol: Antagonistic Action Against NK-3 Receptor
A Hartley-strain male guinea pig was caused to die by head contusion and blood depletion, and its ileum was extracted. An approximately 3 cm long specimen was prepared therefrom, and it was suspended with a tension of 0.5 gram-weight in a 15 ml Magunus tank containing a 37° C. Kregs-Henseleit liquid through which a mixed gas of 95% O2 and 5% CO2 had been passed. A Krebs-Henseleit liquid containing atropin (1×10^−6 M) and indomethacin (5×10^−6 M) was used to obviate the participation of endogenous acetylcholine and prostaglandin. Senktide (1×10^−9 M), which is a specific stimulant of NK-3 receptor, was acted repeatedly at intervals of 50 minutes. After contraction by senktide was stabilized, the drug was added in various concentrations and, after 35-minute incubation, senktide was again acted. The contraction inhibition rate by the drug was determined with the amount of contraction just before the addition of the drug as control, and the 50% inhibition concentration (IC50) of the drug was determined from the linear regression.

T3 sequence (P30547 whole entry): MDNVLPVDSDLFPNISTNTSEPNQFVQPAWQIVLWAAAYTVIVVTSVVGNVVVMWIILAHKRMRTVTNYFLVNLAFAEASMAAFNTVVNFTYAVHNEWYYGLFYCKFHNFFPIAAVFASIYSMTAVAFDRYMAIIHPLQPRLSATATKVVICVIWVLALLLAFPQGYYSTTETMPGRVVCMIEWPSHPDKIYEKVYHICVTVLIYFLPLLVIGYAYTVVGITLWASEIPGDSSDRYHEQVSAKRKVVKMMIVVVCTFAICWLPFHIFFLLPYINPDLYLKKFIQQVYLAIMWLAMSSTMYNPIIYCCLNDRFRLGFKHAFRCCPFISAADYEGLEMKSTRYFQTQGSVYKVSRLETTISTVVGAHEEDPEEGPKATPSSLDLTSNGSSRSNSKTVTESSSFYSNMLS

CN(CC(CCN1CCc2nc3ccccc3c(-c3ccccc3)c2C1)c1ccc(Cl)c(Cl)c1)C(=O)c1ccccc1 (stereo not drawn) [(3)-b]
IC50 (NK-2 receptor [1]): 0.07 µM | Inhibition rate (%) NK-2 receptor stimulation and antigen inhalation (NK-2 receptor [2]; 0.5 μmol/kg, Intravenous): 70.0%

CC(=O)Nc1c2c(nc3ccccc13)CCN(CCC(CN(C)C(=O)c1ccccc1)c1ccc(Cl)c(Cl)c1)C2 (stereo not drawn) [(6)-b]
IC50 (NK-2 receptor [1]): 0.018 µM | Inhibition rate (%) NK-2 receptor stimulation and antigen inhalation (NK-2 receptor [2]; 0.5 μmol/kg, Intravenous): 100.0% | Inhibition rate (%) NK-2 receptor stimulation and antigen inhalation (NK-2 receptor [2]; 8 μmol/kg, Peroral): 81.5% | Toxicity by intravenous administration of the drug (Mouse; 65 μmol/kg intravenous): None

CN(CC(CCN1CCc2nc3c(cc2C1)CCCC3)c1ccc(Cl)c(Cl)c1)C(=O)c1ccccc1 (stereo not drawn) [(2)-b]
IC50 (NK-2 receptor [1]): 0.056 µM | inhibition at 0.005 µM (NK-2 receptor [3]): 89.1% | IC50 (NK-1 receptor): 0.47 µM | IC50 (NK-3 receptor): 0.18 µM | Inhibition rate (%) NK-2 receptor stimulation and antigen inhalation (NK-2 receptor [2]; 1 μmol/kg, Intravenous): 94.2% | Inhibition rate (%) NK-2 receptor stimulation and antigen inhalation (NK-2 receptor [2]; 8 μmol/kg, Peroral): 67.2% | Inhibition rate (%) NK-2 receptor stimulation and antigen inhalation (NK-2 receptor [2]; 10 μmol/kg, Peroral): 54.1% | Toxicity by intravenous administration of the drug (Mouse; 22 μmol/kg intravenous): None | Toxicity by intravenous administration of the drug (Mouse; 65 μmol/kg intravenous): None
